According to ChEMBL document CHEMBL5625264, “Identification of (4-chlorophenyl)(5-hydroxynaphtho[1,2-b]furan-3-yl)methanone as novel COX-2 inhibitor with analgesic profile” (Bioorg Med Chem Lett, 2024):
Active and inactive are the calls of the source. The calls are words filed in the database; no cut-off is given here.

How the values were obtained:
Mus musculus [1] = experiment: Analgesic activity in ip dosed CFA-induced ICR mouse model of chronic inflammatory pain pretreated with CFA for 3 days followed by compound administration and measured at 30 to 300 min by pain behavior test; format: functional, organism-based; settings: time 30-300 min
Mus musculus [2] = experiment: Analgesic activity in ip dosed formalin-induced ICR mouse model of acute inflammatory pain; format: functional, organism-based

Row | SMILES | Activity (Mus musculus [1]) | Activity (Mus musculus [2])
1 | NS(=O)(=O)c1ccc(-c2sncc2-c2ccc(F)cc2)cc1 | Active | Active
2 | O=C(Nc1ccccc1NC(=O)c1ccc2c(c1)OCO2)c1ccc2c(c1)OCO2 | Active | 
3 | O=C(c1ccc(Cl)cc1)c1coc2c1cc(O)c1ccccc12 | Active | Active
